Source: US7029671B1, “Method for activating human antigen-presenting cells, activated human antigen-presenting cells, and use thereof” (Kirin Brewery Company, Limited, priority 1996, dated 2006)

Legend:
[1] = tested on: Human Peripheral Blood-derived APCs; assay: Pharmacological Test 9: allogeneic MLR assay with human peripheral blood monocyte-derived APCs cultured 3 days; assay type: cell-based; details: conclusion from Pharmacological Tests 9, 10 and 11; KRN7000 100 ng/mL
Description: A monocyte fraction was prepared from human peripheral blood mononuclear cells by Percol density-gradient centrifugation. The monocyte fraction was cultured in the presence or absence of GM-CSF (50 ng/mL) and IL-4 (100 ng/mL), and simultaneously either a vehicle (v; DMSO, 0.1%) or KRN7000 (KRN; 100 ng/mL) was added thereto. After culturing for 3 days, the cells were collected and washed with the medium 3 times to give V-APC, KRN-APC, V-APC-GM and KRN-APC-GM (where “GM” refers to the APCs cultured in the presence of GM-CSF and IL-4), which were then provided for use as APCs. As responder cells, human peripheral blood-derived FcR^− cells were used to perform allogeneic MLR assay.

[2] = tested on: Murine colon adenocarcinoma Colon26 cells; assay: Pharmacological Test 6: APC therapy of mice implanted intrasplenically with Colon26 cells, liver weight; assay type: in vivo, mouse
Description: The experiment was performed to study an anti-tumor effect of murine bone marrow-derived APCs activated with KRN7000 on mice implanted with tumor cells. All experiments were performed with CDF1 mice (6-week-old, female), which were divided into groups consisting of 5 mice. Murine colon adenocarcinoma Colon26 cells were implanted into each mouse intrasplenically at a level of 2×10^6 cells/mouse (inoculation day: day 0). On day 1, the vehicle-pretreated APCs (V-APC) and the KRN7000-pretreated (100 ng/mL) APCs (KRN-APC) both prepared in the same manner as in Pharmacological Test 5 were individually injected intravenously to the mice at a level of 8×10^5 cells/mouse. As a positive control, KRN7000 was injected intravenously to the mice at a dose of 100 μg/kg on days 1, 5 and 9. On day 14, the liver was removed from each of the mice and weighed. Here, the liver from the mouse that had not been implanted with the tumor cells was about 1 g. Accordingly, the substantial tumor weight was determined by subtracting 1 g from the weight of the liver of the tumor-implanted mouse.

[3] = tested on: Human Umbilibal Cord Blood-derived APC; assay: Pharmacological Test 12: autologous MLR assay with human umbilical cord blood monocyte-derived APCs; assay type: cell-based; details: KRN7000 100 ng/mL
Description: A monocyte fraction was prepared from human umbilical cord blood mononuclear cells by Percol density-gradient centrifugation. The monocyte fraction was cultured in the presence of GM-CSF (50 ng/mL) and IL-4 (100 ng/mL), and simultaneously either a vehicle (V; 0.1% DMSO) or KRN7000 (KRN; 100 ng/mL) was added thereto. After culturing for 3 days, the cells were recovered and washed with the medium 3 times to give V-APC-GM and KRN-APC-GM, respectively, which were provided for use as APCs. As response cells, human umbilical cord blood-derived FcR^− cells were used for autologous MLR assay.

[4] = tested on: dendritic cell-rich APCs prepared from the murine spleen; details: Koezuka 1995; Yamaguchi 1996; cited from earlier work
[5] = tested on: Murine melanoma B16 cells; assay: Pharmacological Test 8: APC therapy of mice with subcutaneous B16 melanoma, tumor volume; assay type: in vivo, mouse; details: KRN7000 100 μg/kg i.v. on days 1, 5 and 9 (positive control)
Description: The experiment was performed with BDF1 mice (6-week-old, female), which were divided into groups consisting of 6 mice. Murine melanoma B16 cells were implanted subcutaneously into each mouse at a level of 1.5×10^6 cells/mouse (implantation day: day 0). Several types of pretreated APCs were prepared in the same manner as in Pharmacological Test 3, in which APCs were pretreated with a vehicle (DMSO, final concentration: 0.1%) (V-APC), with both the vehicle (DMSO, final concentration: 0.1%) and a B16-tumor cell lysate (V-T-APC), with KRN7000 (final concentration: 100 ng/mL) (KRN-APC), and with both KRN7000 (final concentration: 100 ng/mL) and a B16-tumor cell lysate (KRN-T-APC), respectively. Each of the pretreated APCs was injected intravenously into the mice at a dose of 5×10^5 cells/mouse on day 1. As a positive control, KRN7000 was injected intravenously into the mice at a dose of 100 μg/kg on days 1, 5 and 9. The volume of the subcutaneous tumor in each mouse was measured.

[6] = tested on: Human Peripheral Blood-derived APC; assay: Pharmacological Test 1: autologous MLR assay with human peripheral blood-derived APCs pretreated with KRN7000; assay type: cell-based; details: KRN7000 100 ng/mL, 40 hours; conclusion from autologous MLR
Description: This experiment was designed to study an effect of KRN7000 (Compound No.14, a representative glycoside compound of the invention) on APCs prepared from human peripheral blood. The APCs (mainly comprised of dendritic cells) derived from human peripheral blood were prepared essentially according to the method of Hsu et al. (supra). Briefly, human peripheral blood was layered over Ficoll-Paque and centrifuged at 2,000 rpm for 35 minutes to give a mononuclear cell fraction. A portion of the mononuclear cell fraction was suspended into PBS (Ca^++, Mg^++ free) supplemented with 5% of inactivated human AB serum. The resultant solution was layered over 50% Percol, and then centrifuged at 3,000 rpm for 20 minutes to give a high-density fraction. The high-density fraction was panned using a human γ-globulin-coated dish to remove FcR^+ cells therefrom (i.e., a monocyte-removed fraction). The resultant fraction was reacted with anti-CD3 monoclonal antibodies, anti-CD21 monoclonal antibodies and anti-CD56 monoclonal antibodies. […]
The APCs (5×10^4 cells/well) and the responder cells (1×10^5 cells/well) both prepared in the above steps were added to wells of a 96-well flat-bottomed plate, and then subjected to autologous MLR assay. […] The amount of the ^3H-TdR taken up into the cells was determined using a liquid scintillation counter. […]

[7] = tested on: Murine T cell lymphoma EL-4 cells; assay: Pharmacological Test 4: APC therapy of EL-4-bearing mice, survival period; assay type: in vivo, mouse
Description: To study an anti-tumor effect of murine spleen-derived APCs activated with KRN7000 on mice implanted with tumor cells, experiments were performed with BDF1 mice (6-week-old, female). All experiments included 6 mice per group. Murine T cell lymphoma EL-4 cells were injected intravenously into each mouse at a level of 1×10^5 cells/mouse (injection day: day 0). On day 1, the vehicle-pretreated APCs (V-APC) and the KRN7000-pretreated (100 ng/mL) APCs (KRN-APC) both prepared in the same manner as in Pharmacological Test 3 were each injected intravenously into the mice at a level of 5×10^5 cells/mouse. As a positive control, KRN7000 was injected intravenously into the mice at a dose of 100 μg/kg on days 1, 5 and 9. Each mouse was checked for a sign of life daily to determine its survival period.

[8] = KRN7000 100 μg/kg i.v. 3 times versus KRN-APC once

In the case of CCCCCCCCCCCCCCCCCCCCCCCCCC(=O)N[C@@H](CO[C@H]1O[C@H](CO)[C@H](O)[C@H](O)[C@H]1O)[C@H](O)[C@H](O)CCCCCCCCCCCCCC [KRN7000, (2S,3S,4R)-1-(α-D-galactopyranosyloxy)-2-hexacosanoylamino-3,4-octadecanediol], the “activation of APCs from human peripheral blood” value [1] is reported as “can activate the APCs from human peripheral blood by various methods”, the “tumor growth inhibitory effect compared with one injection of KRN-APC” value [2, 8] is reported as “at the same level as that when KRN-APC was injected once” and the “inhibitory effect on tumor growth (liver weight on day 14)” value ([2]; KRN7000 100 μg/kg i.v. on days 1, 5 and 9 (positive control)) is reported as “remarkable inhibitory effect on tumor growth”. For the same compound, the “activation of APCs derived from human umbilical cord blood” value [3] was “can activate the APCs derived from human umbilical cord blood by various methods”, the “enhancement of the functions of dendritic cell-rich APCs from murine spleen” value [4] was “can enhance the functions of dendritic cell-rich APCs prepared from the murine spleen” and the “tumor growth-inhibitory effect (volume of the subcutaneous tumor)” value [5] was “tumor growth-inhibitory effect”. The “activating effect on APCs (antigen-presenting function enhancing effect)” value [6] was “has an activating effect on the APCs prepared from human peripheral blood”, the survival period ([7]; EL-4 i.v. day 0, KRN7000 100 μg/kg i.v. on days 1, 5 and 9 (positive control)) was “remarkable increase in survival period” and the “potency of the survival effect compared with one injection of KRN-APC” value [7, 8] was “weaker than that when KRN-APC was injected only once”.
